Test results: publication PMC8658806, “New Carbonic Anhydrase-II Inhibitors from Marine Macro Brown Alga Dictyopteris hoytii Supported by In Silico Studies” (Molecules, 2021)
Where two headings read alike, the source gives them in different places.

Target: T1, purified bovine erythrocyte CA-II (Bos taurus, UniProt P00921)
T1 construct: purified bovine erythrocyte CA-II; from tissue; host or cells: bovine erythrocytes
Assay: Carbonic anhydrase II inhibition (4-nitrophenyl acetate hydrolysis, microplate)
Assay type: biochemical
Settings: for % Inhibition: preliminary screening, test concentration not given
Experimental: The total reaction volume of 200 µL including 20 µL of test compounds, isolated from Dictyopteris hoytii, and prepared in DMSO, followed by the addition of 140 µL of HEPES–tris buffer, 20 µL of purified bovine erythrocyte CA-II (0.1 mg/mL) prepared in buffer, and 20 µL of a solution of 4-nitrophenyl acetate. Then, 20 µL of the test compound was incubated with the enzyme carbonic anhydrase (EC 4.2.1.1) for 15 min in 96-well flat bottom plates. The rate of product formation was monitored with the addition of 20 µL of 4-NPA as substrate, prepared in methanol at the final concentration of 0.7 mM, at 25 °C for 30 min with regular intervals of 1 min, by using microplate readers (Bio-Rad, Molecular Devices, CA, USA). HEPES-tris was used as a buffer for the reaction at a final concentration of 20 mM at pH 7.4.

[1] = Table 1 and text, unit given, NA = not active, read-out: IC50 ± SEM

T1 sequence (P00921 whole entry): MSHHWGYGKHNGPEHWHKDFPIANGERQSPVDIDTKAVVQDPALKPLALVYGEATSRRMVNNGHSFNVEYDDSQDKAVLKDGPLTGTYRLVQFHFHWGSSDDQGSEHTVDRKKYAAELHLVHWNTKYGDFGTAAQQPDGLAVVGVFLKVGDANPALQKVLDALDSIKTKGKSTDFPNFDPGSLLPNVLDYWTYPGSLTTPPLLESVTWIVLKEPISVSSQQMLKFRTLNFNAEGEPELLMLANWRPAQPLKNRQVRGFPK

| Compound | IC50 [1] [µM] | % Inhibition [%] | IC50 [µM] | IC50 (Table 2 repeat of Table 1 values, read-out: IC50 ± S.E.M) [µM] |
| --- | --- | --- | --- | --- |
| C=CCCCCCCCCCCCCCCCC [Compound 7, octadec-1-ene] | 16.3 ± 0.31 | 88.0 |  |  |
| C/C=C(\CC[C@@H](C)[C@H]1CC[C@H]2[C@@H]3CC=C4C[C@@H](O)CC[C@]4(C)[C@H]3CC[C@]12C)C(C)C [Compound 15, fucosterol] |  | 69.8 | 31.3 ± 1.34 |  |
| ethyl methyl 2-bromobenzene 1,4-dioate [Compound 13] | 39.5 ± 0.73 | 87.3 |  | 39.5 ± 0.73 |

Second part, led by results:

| IC50 [1] [µM] | % Inhibition [%] | Compound | IC50 [µM] | IC50 (Table 2 repeat of Table 1 values, read-out: IC50 ± S.E.M) [µM] |
| --- | --- | --- | --- | --- |
| 44.9 ± 1.1 | 79.4 | O=Cc1ccccc1/C=C/C(=O)O [Compound 1, (E)-3-(2-formylphenyl)acrylic acid] |  |  |
| 17.7 ± 2.01 | 93.9 | COC(OC)c1ccc(/C=C/C(=O)O)cc1 [Compound 5, (E)-3-(4-(dimethoxymethyl)phenyl)acrylic acid] |  |  |
| 53.1 ± 1.2 | 93.9 | O=Cc1ccc(C=O)cc1 [Compound 9, terephthalaldehyde] |  |  |
| 24.3 ± 1.38 | 87.3 | CCCCCCCCCCCCCCCCCCC=CCCCCCCCC(=O)O [Compound 19, n-octacos-9-enoic acid] |  |  |
